Calls of active or inactive are those of the source. For most assays here, no stated cut-off is given here; in the data, actives have a measured EC50 and inactives only a lower limit.
How the values were obtained:
[1] = target: T1, Replicative DNA helicase DnaB (Mycobacterium tuberculosis, UniProt P9WMR3); experiment: DnaB intein splicing inhibitors, dose response, biochemical, cell-free fluorescence (AID 449749); type: functional
T1 sequence (P9WMR3 whole entry): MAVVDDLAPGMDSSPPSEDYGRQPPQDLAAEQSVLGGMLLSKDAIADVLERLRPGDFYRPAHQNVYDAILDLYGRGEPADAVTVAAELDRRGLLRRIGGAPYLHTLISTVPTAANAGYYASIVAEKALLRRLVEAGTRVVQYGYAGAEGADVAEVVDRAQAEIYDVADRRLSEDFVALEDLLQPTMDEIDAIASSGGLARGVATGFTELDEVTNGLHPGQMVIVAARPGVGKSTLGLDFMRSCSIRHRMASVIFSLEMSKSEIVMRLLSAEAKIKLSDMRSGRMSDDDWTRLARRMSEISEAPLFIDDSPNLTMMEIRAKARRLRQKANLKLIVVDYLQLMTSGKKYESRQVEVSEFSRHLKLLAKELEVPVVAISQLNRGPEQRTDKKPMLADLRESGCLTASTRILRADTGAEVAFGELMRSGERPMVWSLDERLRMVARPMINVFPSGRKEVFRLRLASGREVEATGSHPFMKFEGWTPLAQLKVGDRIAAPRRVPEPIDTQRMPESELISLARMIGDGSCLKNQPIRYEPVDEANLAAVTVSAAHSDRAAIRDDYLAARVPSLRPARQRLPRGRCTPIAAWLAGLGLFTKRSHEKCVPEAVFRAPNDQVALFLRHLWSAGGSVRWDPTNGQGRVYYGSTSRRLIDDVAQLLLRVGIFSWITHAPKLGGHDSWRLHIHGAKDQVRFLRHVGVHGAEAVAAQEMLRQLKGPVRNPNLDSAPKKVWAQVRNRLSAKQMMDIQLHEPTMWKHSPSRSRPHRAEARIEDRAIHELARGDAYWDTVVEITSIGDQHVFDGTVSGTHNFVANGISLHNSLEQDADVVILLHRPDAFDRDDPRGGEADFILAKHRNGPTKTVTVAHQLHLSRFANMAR

Protein RecA = target: T2, Protein RecA (Mycobacterium tuberculosis, UniProt P9WHJ3); experiment: Fluorescence Cell-Free Homogeneous Dose Retest to Identify Inhibitors of RecA-Intein Splicing Activity. [Related pubchem assays (depositor defined):AID2097, AID2223, AID489010, AID492950]; type: functional
T2 sequence (P9WHJ3 whole entry): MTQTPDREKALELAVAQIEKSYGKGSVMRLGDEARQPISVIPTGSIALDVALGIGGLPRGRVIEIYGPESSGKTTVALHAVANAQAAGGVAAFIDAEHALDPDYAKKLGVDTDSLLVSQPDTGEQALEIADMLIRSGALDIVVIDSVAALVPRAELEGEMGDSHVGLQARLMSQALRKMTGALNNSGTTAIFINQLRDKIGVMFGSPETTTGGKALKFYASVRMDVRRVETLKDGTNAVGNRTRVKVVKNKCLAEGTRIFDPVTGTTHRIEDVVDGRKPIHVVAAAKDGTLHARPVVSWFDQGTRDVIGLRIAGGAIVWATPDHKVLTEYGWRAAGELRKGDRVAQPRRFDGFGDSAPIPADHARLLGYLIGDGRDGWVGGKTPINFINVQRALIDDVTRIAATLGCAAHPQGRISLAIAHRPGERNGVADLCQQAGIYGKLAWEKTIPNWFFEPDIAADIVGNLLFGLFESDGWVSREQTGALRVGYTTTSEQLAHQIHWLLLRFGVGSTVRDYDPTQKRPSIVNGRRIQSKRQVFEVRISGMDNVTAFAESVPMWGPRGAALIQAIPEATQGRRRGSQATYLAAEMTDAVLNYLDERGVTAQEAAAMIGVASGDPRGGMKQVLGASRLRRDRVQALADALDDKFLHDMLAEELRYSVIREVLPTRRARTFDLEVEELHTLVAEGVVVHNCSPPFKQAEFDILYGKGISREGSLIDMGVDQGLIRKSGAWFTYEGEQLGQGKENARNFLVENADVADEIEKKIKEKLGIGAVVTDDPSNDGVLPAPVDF

[2] = target: T3, Histone-lysine N-methyltransferase NSD2 (Homo sapiens, UniProt O96028); type: biochemical
T3 sequence (O96028 whole entry): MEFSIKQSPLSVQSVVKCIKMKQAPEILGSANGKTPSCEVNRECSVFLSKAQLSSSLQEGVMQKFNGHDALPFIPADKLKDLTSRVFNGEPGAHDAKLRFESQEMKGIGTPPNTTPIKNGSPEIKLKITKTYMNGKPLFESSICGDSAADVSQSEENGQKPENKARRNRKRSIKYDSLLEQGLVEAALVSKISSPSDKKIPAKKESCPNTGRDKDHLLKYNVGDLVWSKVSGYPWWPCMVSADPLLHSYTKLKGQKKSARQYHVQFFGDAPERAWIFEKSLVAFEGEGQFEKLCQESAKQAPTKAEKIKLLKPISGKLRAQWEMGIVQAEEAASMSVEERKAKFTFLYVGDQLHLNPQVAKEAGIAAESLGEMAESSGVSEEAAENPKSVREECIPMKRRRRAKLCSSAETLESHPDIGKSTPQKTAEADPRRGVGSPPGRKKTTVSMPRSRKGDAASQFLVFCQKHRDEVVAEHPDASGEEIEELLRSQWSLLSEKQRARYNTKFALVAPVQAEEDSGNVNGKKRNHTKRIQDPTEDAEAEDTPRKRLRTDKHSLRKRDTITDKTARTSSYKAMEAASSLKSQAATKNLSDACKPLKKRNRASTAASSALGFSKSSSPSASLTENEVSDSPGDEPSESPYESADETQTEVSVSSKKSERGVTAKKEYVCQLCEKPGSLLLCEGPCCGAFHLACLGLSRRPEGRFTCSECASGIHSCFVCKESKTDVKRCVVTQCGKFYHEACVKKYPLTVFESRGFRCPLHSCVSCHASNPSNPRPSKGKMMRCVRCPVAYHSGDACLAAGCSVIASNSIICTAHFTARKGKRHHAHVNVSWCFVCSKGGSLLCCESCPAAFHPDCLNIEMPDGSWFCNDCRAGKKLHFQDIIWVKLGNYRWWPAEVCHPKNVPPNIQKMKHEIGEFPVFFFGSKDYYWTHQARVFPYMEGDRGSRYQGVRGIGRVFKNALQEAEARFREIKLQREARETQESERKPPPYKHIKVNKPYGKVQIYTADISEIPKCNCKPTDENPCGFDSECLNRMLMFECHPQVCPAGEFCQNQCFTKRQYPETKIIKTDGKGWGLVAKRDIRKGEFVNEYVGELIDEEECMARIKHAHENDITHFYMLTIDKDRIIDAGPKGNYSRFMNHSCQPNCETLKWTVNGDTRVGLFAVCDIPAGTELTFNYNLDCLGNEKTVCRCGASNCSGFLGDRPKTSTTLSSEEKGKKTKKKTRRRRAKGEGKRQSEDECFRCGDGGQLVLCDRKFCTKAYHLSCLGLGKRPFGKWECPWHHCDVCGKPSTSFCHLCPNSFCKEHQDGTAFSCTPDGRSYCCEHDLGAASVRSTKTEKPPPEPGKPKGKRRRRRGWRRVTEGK

[3] = target: T4, Mannose-6-phosphate isomerase (Homo sapiens, UniProt P34949); experiment: MPI inhibition at elevated mannose 6-phosphate – biochemical, fluorescence intensity, high mannose 6-phosphate, primary screen (AID 1220)
T4 sequence (P34949 whole entry): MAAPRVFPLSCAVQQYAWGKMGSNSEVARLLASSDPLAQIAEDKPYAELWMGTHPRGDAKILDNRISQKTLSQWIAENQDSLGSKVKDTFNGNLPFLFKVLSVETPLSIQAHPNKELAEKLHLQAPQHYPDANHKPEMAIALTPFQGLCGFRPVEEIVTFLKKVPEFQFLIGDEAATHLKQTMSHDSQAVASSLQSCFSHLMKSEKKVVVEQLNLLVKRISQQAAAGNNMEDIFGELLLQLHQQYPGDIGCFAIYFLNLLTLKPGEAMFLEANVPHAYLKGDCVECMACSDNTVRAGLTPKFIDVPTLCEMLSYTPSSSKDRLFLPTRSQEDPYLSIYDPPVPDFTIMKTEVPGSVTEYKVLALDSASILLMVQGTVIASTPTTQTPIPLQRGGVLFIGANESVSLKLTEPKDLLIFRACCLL

Estrogen receptor beta = Estrogen receptor beta (Homo sapiens, UniProt Q92731); experiment: blockers of SRC-3 recruitment to ERβ – biochemical, ELISA, streptavidin-HRP readout, orthogonal assay, confirmation (AID 1060)
[4] = NIH3T3 cell viability loss – ATP luminescence, mouse fibroblasts, counter-screen, dose response (AID 2010); type: functional, cell-based;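 further: cells exposed to compound for about 90 hours before reading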
[5] = Trypanosoma cruzi growth suppression in host cells – NIH3T3 host cells, beta-gal luminescence, confirmation (AID 2044); type: functional, cell-based;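 further: intracellular parasites grown in NIH/3T3 mouse fibroblasts as host cells; luminescent beta-galactosidase reporter signal from transgenic T. cruzi replicating inside host cells; inhibitors lower the luminescence signal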
HT-1080 = experiment: HT1080 cell viability loss – fluorescence readout (AID 620); type: functional, cell-based; settings: Homo sapiens
[6] = target: Luciferin 4-monooxygenase (Photinus pyralis, UniProt P08659); experiment: Counter Screen for Luciferase-based Assay Positives. [Related pubchem assays: 620, 618, 411 ]
[7] = target: Glyceraldehyde-3-phosphate dehydrogenase (Homo sapiens, UniProt P04406)
[8] = Luminescence Cell-Based Dose Response HTS to Identify Inhibitors of 5'UTR Stem-Loop Driven Prion Protein mRNA Translation in H4 Neuroglioblastoma Cells. [Related pubchem assays: 1827 (Project Summary), 1813 (Primary HTS)]; type: functional
HEK293 = experiment: EBV LMP1 TES2 canonical NF-kB signalling blockers – cell-based, HEK293, luciferase, cherry-pick, dose response (AID 588343); type: functional; settings: Homo sapiens
[9] = alpha-synuclein stem-loop luciferase translation blockers – H4 neuroglioma cells, luminescence, confirmation (AID 1988); type: functional, cell-based
[10] = target: T5, Heat shock factor protein 1 (Mus musculus, UniProt P38532); experiment: enhancement of HSF1-driven luciferase signal – cell-based, NIH3T3, luminescence, dose retest, confirmation (AID 435004); type: functional;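 further: stress induced by proteasome inhibitor MG132 added 30 min after compound; luciferase reporter driven by HSF1 response element in NIH3T3 cells; actives raise luminescence as potentiators of the MG132 stress response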
T5 sequence (P38532 whole entry): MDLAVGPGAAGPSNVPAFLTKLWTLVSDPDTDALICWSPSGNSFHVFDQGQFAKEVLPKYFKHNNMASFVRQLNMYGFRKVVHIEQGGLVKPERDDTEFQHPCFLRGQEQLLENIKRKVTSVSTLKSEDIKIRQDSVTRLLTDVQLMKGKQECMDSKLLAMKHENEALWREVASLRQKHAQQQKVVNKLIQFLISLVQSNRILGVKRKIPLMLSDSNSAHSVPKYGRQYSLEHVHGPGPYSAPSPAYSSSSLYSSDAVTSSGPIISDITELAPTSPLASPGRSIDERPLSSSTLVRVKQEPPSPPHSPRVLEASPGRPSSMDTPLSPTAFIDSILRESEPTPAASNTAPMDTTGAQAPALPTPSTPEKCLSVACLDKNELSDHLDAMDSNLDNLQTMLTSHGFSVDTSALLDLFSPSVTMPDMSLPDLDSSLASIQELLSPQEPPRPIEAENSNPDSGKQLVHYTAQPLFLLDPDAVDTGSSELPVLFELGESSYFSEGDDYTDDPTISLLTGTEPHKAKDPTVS

[11] = luciferase reporter signal suppression in cells – H4 neuroglioma cells, luminescence, dose response (AID 1990); type: functional, cell-based
[12] = HEK-293T cell viability reduction – luminescence, B-cell screen hits, cytotoxicity control for BCR NF-kB inhibitor project, dose response (AID 489021); type: functional, cell-based;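 further: HEK-293T cells carrying an NF-kB luciferase reporter; cells exposed to compound for about 14 hours before viability readout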

Estrogen receptor beta, sequence (Q92731 whole entry): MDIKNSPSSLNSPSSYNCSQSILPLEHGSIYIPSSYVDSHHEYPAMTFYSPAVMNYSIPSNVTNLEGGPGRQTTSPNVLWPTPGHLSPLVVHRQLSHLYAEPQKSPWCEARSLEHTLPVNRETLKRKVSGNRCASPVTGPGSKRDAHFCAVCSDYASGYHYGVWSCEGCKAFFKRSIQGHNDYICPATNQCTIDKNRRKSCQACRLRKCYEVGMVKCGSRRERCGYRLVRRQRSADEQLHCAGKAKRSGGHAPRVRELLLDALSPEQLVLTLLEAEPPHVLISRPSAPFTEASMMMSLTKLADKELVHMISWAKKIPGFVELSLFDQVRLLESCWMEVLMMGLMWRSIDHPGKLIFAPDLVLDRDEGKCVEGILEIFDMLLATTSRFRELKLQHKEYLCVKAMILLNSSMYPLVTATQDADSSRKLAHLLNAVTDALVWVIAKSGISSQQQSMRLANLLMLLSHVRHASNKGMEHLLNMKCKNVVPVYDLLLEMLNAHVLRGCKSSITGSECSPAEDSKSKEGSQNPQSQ
Luciferin 4-monooxygenase, sequence (P08659 whole entry): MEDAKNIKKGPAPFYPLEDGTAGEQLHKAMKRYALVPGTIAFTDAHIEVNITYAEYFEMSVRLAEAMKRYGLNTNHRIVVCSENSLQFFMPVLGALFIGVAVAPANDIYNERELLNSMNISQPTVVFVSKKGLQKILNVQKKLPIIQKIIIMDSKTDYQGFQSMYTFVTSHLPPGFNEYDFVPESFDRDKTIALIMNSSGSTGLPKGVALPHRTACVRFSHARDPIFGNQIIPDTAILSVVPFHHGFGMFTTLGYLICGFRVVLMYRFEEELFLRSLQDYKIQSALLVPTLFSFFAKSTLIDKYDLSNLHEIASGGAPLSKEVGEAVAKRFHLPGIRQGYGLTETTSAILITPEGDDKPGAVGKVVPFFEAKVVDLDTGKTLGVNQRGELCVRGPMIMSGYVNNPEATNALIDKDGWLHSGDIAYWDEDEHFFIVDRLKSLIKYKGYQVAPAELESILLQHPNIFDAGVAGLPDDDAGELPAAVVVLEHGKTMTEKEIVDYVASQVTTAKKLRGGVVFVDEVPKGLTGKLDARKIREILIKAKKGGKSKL
Glyceraldehyde-3-phosphate dehydrogenase, sequence (P04406 whole entry): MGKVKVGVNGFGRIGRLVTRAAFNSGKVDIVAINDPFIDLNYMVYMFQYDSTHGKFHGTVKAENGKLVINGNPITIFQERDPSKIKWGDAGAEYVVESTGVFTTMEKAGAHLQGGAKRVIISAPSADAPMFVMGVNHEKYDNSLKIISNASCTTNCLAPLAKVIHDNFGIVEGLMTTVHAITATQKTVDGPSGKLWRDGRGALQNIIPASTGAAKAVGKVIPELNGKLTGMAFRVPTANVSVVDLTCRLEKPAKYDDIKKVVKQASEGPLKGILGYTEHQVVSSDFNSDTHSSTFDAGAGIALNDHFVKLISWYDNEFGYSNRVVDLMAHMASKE

Structure (SMILES): CC1=Nc2cccc3cccc(c23)N1C
- AC50 [1]: > 380 µM (inactive)
- EC50 (Protein RecA): > 380 µM (inactive)
- AC50 [2]: 1.25 µM (active)
- IC50 [3]: > 50 µM (not active)

Structure (SMILES): CC(=N)/C(C#N)=C(/O)CSc1nnnn1-c1ccccc1
- IC50 (Estrogen receptor beta): > 50 µM (not active)

Structure (SMILES): CSCCC(=O)N(C)CC1CCCN(CCc2cccc(C(F)(F)F)c2)C1 (stereo not drawn)
- EC50 (cells): 0.329 µM (active)
- EC50 [4]: > 60 µM (not active)
- EC50 [5]: < 0.1 µM (active)

Structure (SMILES): Cc1cc(-c2csc(N)n2)c(C)n1CCC(C)C
- EC50 (HT-1080): > 50 µM (not active)
- EC50 [6]: 16 µM (active)

Structure (SMILES): O=C1C(Cl)=C(N2CCN(Cc3ccccc3)CC2)C(=O)N1c1ccnc(Cl)c1
- IC50 [7]: > 50 µM (inconclusive)

Structure (SMILES): COCc1cc(CN2CCCC(C(=O)Nc3cccc(-n4cnnn4)c3)C2)ccc1OC (stereo not drawn)
- EC50 (cells): 0.061 µM (active)
- EC50 [4]: > 60 µM (not active)
- EC50 [5]: < 0.1 µM (active)

Structure (SMILES): CCc1ccc(NC(=O)CSc2nc(C)cc(O)n2)cc1
- IC50 (Estrogen receptor beta): 48.8 µM (not active)

Structure (SMILES): Cc1ccc(C(=O)CSc2nnnn2C(C)C)c(C)c1
- EC50 [8]: 14.7 µM (active)
- EC50 (HT-1080): > 50 µM (not active)
- AC50 (HEK293): 2.92 µM (active)
- EC50 [9]: 3.7 µM (active)
- EC50 [10]: > 260 µM (inactive)
- EC50 [6]: 8.28 µM (active)
- EC50 [11]: 9.17 µM (active)

Structure (SMILES): COc1ccc(-c2noc(CCCC(=O)Nc3ccc(C(N)=O)cc3)n2)cc1
- IC50 [12]: > 80 µM (inactive)

Source: ChEMBL document CHEMBL1201862, “PubChem BioAssay data set” (2004)
